Source: ChEMBL document CHEMBL2163233, “3-Oxoisoindoline-1-carboxamides: potent, state-dependent blockers of voltage-gated sodium channel Na(V)1.7 with efficacy in rat pain models” (J Med Chem, 2012)
In brackets after ≈: the same amount, converted by molar mass.

Assays:
in vitro [1] = conditions: rat, microsomes, CLH
in vitro [2] = conditions: human, microsomes, CLH
in vivo [3] = conditions: Sprague-Dawley, rat, iv, 3 umol/kg
in vivo [4] = conditions: Sprague-Dawley, rat, po, 10 umol/kg
in vivo [5] = conditions: Sprague-Dawley, rat, iv, 3 umol/kg; remark: listed apart in the source
in vitro [6] = conditions: Sprague-Dawley, rat, plasma
in vivo [7] = conditions: Sprague-Dawley, rat, po, 10 umol/kg; remark: listed apart in the source
in vivo [8] = conditions: Sprague-Dawley, rat, iv, 3 umol/kg; remark: listed apart in the source
in vivo [9] = conditions: Sprague-Dawley, rat, iv, 3 umol/kg; remark: listed apart in the source
in vivo [10] = conditions: Sprague-Dawley, rat, po, 10 umol/kg; remark: listed apart in the source
in vivo [11] = conditions: Sprague-Dawley, rat, po, 10 umol/kg; remark: listed apart in the source
in vivo [12] = conditions: Sprague-Dawley, rat, po, 10 umol/kg; remark: listed apart in the source
cells = conditions: Homo sapiens, HEK293

Row | Structure (SMILES) | solubility at 4 h (physchem) | microsomal CLint (in vitro [1]) | microsomal CLint (in vitro [2]) | other results
1 | O=C(NCc1ccc(OC(F)(F)F)cc1)C1c2ccccc2C(=O)N1CC1CC(F)(F)C1 (stereo not given) | < 1 µM | 38 µL/min/mg | 25 µL/min/mg | –
2 | O=C(NCc1ccc(F)c(OC(F)(F)F)c1)C1c2ccccc2C(=O)N1CCc1ncc(F)cn1 (stereo not given) | 27 µM (≈ 13.3 µg/mL) | 110 µL/min/mg | 220 µL/min/mg | –
3 | O=C(NCc1ccc(OC(F)(F)F)cc1)C1c2ccccc2C(=O)N1CCN1CCOCC1 (stereo not given) | 200 µM (≈ 92.7 µg/mL) | < 10 µL/min/mg | 49 µL/min/mg | –
4 | CC1(C(=O)NCc2ccc(OC(F)(F)F)cc2)c2ccccc2C(=O)N1CCc1ccccn1 (racemic) | – | 57 µL/min/mg | > 500 µL/min/mg | –
5 | O=C(NCc1ccc(OC(F)(F)F)cc1)C1c2ccccc2C(=O)N1CC(F)(F)c1ccccn1 (stereo not given) | 2 µM (≈ 0.983 µg/mL) | 30 µL/min/mg | 57 µL/min/mg | –
6 | N#CCCN1C(=O)c2ccccc2C1C(=O)NCc1ccc(OC(F)(F)F)cc1 (stereo not given) | 45 µM (≈ 18.2 µg/mL) | 16 µL/min/mg | 11 µL/min/mg | –
7 | O=C(NCc1ccc(OC(F)(F)F)cc1)C1c2ccccc2C(=O)N1CCc1ncc(F)cn1 (stereo not given) | 25 µM (≈ 11.9 µg/mL) | < 10 µL/min/mg | 53 µL/min/mg | AUC (in vivo [3]): 1.4 µM·h; Cmax (in vivo [4]): 800 nM; Vd (in vivo [5]): 1.1 L/kg; fraction unbound (in vitro [6]): 0.092; bioavailability (in vivo [7]): 44%; half-life (in vivo [8]): 24 min; clearance (in vivo [9]): 37 mL/min/kg; half-life (in vivo [10]): 138 min; Tmax (in vivo [11]): 18 min; AUC (in vivo [12]): 2.1 µM·h
8 | CC(C)(Cc1ccccn1)N1C(=O)c2ccccc2C1C(=O)NCc1ccc(OC(F)(F)F)cc1 (stereo not given) | 13 µM (≈ 6.29 µg/mL) | 67 µL/min/mg | 340 µL/min/mg | –
9 | O=C(NCc1ccc(C(F)(F)F)cc1)C1c2ccccc2C(=O)N1CCc1ccccn1 (stereo not given) | 7 µM (≈ 3.08 µg/mL) | 58 µL/min/mg | 180 µL/min/mg | –
10 | Cc1ccc(NC(=O)C2c3ccccc3C(=O)N2CCc2ccccn2)cc1C (stereo not given) | 34 µM (≈ 13.1 µg/mL) | – | – | –
11 | CC(C)(C)OC(=O)N1CCC(N2C(=O)c3ccccc3C2C(=O)NCc2ccc(OC(F)(F)F)cc2)CC1 (stereo not given) | 7 µM (≈ 3.73 µg/mL) | 89 µL/min/mg | 170 µL/min/mg | –
12 | O=C(NCc1ccc(OC(F)(F)F)cc1)C1c2cccc(O)c2C(=O)N1CCc1ccccn1 (stereo not given) | 15 µM (≈ 7.07 µg/mL) | 10 µL/min/mg | 59 µL/min/mg | –
13 | Cc1cccc2c1C(C(=O)NCc1ccc(OC(F)(F)F)cc1)N(CCc1ccccn1)C2=O (stereo not given) | 1 µM (≈ 0.469 µg/mL) | 59 µL/min/mg | 190 µL/min/mg | –
14 | O=C(NCc1ccc(OC(F)F)nc1)C1c2ccccc2C(=O)N1CCc1ccccn1 (stereo not given) | 32 µM (≈ 14 µg/mL) | < 10 µL/min/mg | 33 µL/min/mg | –
15 | CN(C)CCC=C1c2ccccc2CCc2ccccc21 [AMITRIPTYLINE] | – | – | – | IC50 (cells): 12 µM
16 | O=C(NCc1ccccc1Br)C1c2ccccc2C(=O)N1CCc1ccccn1 (stereo not given) | 280 µM (≈ 126 µg/mL) | 20 µL/min/mg | 300 µL/min/mg | –
17 | O=C(NCc1ccc(OC(F)(F)F)cc1)C1c2ccccc2C(=O)N1C1CCC(F)(F)CC1 (single isomer, unassigned) | – | – | – | IC50 (cells): > 10 µM
18 | O=C(NCc1ccc(OCC(F)(F)F)nc1)C1c2ccccc2C(=O)N1CCc1ccccn1 (stereo not given) | 88 µM (≈ 41.4 µg/mL) | < 10 µL/min/mg | 40 µL/min/mg | –
19 | O=C(NCc1ccc(OC(F)(F)F)cc1)C1c2ccccc2C(=O)N1C1CC(F)(F)C1 (stereo not given) | 4 µM (≈ 1.76 µg/mL) | < 10 µL/min/mg | 15 µL/min/mg | –
20 | O=C(NCc1ccc(OC(F)(F)F)cc1)C1c2ccccc2C(=O)N1CCc1ccncc1 (stereo not given) | 61 µM (≈ 27.8 µg/mL) | 20 µL/min/mg | 170 µL/min/mg | –
21 | O=C(NCc1cccc(OC(F)(F)F)c1)C1c2ccccc2C(=O)N1CCc1ccccn1 (stereo not given) | 19 µM (≈ 8.65 µg/mL) | 86 µL/min/mg | 370 µL/min/mg | –
22 | O=C(NCc1cccc(Br)c1)C1c2ccccc2C(=O)N1CCc1ccccn1 (stereo not given) | 6 µM (≈ 2.7 µg/mL) | 47 µL/min/mg | 310 µL/min/mg | –
23 | COc1ccc(CNC(=O)C2c3ccccc3C(=O)N2CCc2ccccn2)cc1 (stereo not given) | 360 µM (≈ 145 µg/mL) | – | – | –

Row | Structure (SMILES) | solubility at 4 h (physchem) | microsomal CLint (in vitro [1]) | microsomal CLint (in vitro [2]) | other results
24 | COc1cccc2c1C(=O)N(CCc1ccccn1)C2C(=O)NCc1ccc(OC(F)(F)F)cc1 (stereo not given) | 6 µM (≈ 2.91 µg/mL) | < 10 µL/min/mg | 50 µL/min/mg | –
25 | O=C(NCc1ccc(OC(F)(F)F)cc1)C1c2cccc(O)c2C(=O)N1CCc1ncc(F)cn1 (stereo not given) | 2 µM (≈ 0.981 µg/mL) | 36 µL/min/mg | 42 µL/min/mg | –
26 | CC(C)(CN1C(=O)c2ccccc2C1C(=O)NCc1ccc(OC(F)(F)F)cc1)c1ccccn1 (stereo not given) | 6 µM (≈ 2.9 µg/mL) | < 10 µL/min/mg | 40 µL/min/mg | –
27 | O=C(NCc1ccc(OCC(F)(F)F)cc1)C1c2ccccc2C(=O)N1CCc1ccccn1 (stereo not given) | 42 µM (≈ 19.7 µg/mL) | – | – | –
28 | O=C(NCc1ccc(OC(F)(F)F)cc1)C1c2ccccc2C(=O)N1CCc1ncccn1 (stereo not given) | 310 µM (≈ 141 µg/mL) | < 10 µL/min/mg | 33 µL/min/mg | –
29 | O=C(NCc1ccc(OC(F)(F)F)cc1)C1c2ccccc2C(=O)N1C[C@@H]1CCCO1 (stereo not given in full) | 28 µM (≈ 12.2 µg/mL) | 28 µL/min/mg | 50 µL/min/mg | –
30 | CC(C)(C)OC(=O)N1CC(N2C(=O)c3ccccc3C2C(=O)NCc2ccc(OC(F)(F)F)cc2)C1 (stereo not given) | 30 µM (≈ 15.2 µg/mL) | < 10 µL/min/mg | 43 µL/min/mg | –
31 | CC(NC(=O)C1c2ccccc2C(=O)N1CCc1ccccn1)c1ccc(OCC(F)(F)F)cc1 (stereo not given) | 34 µM (≈ 16.4 µg/mL) | 49 µL/min/mg | 204 µL/min/mg | –
32 | COc1cccc2c1C(C(=O)NCc1ccc(OC(F)(F)F)cc1)N(CCc1ccccn1)C2=O (stereo not given) | 4 µM (≈ 1.94 µg/mL) | 37 µL/min/mg | 97 µL/min/mg | –
33 | O=C(NCc1ccc(OC(F)(F)F)cc1)C1c2ccccc2C(=O)N1CCCc1ccccn1 (stereo not given) | 6 µM (≈ 2.82 µg/mL) | 31 µL/min/mg | > 500 µL/min/mg | –
34 | O=C(NCc1ccc(OC(F)(F)F)cc1)C1c2ccccc2C(=O)N1CCOc1ccccn1 (stereo not given) | < 1 µM | 39 µL/min/mg | 190 µL/min/mg | –
35 | N#C[C@H]1CC[C@H](N2C(=O)c3ccccc3C2C(=O)NCc2ccc(OC(F)(F)F)cc2)CC1 (stereo not given in full) | 200 µM (≈ 91.5 µg/mL) | 11 µL/min/mg | < 10 µL/min/mg | –
36 | O=C(NCc1ccc(CC(F)(F)F)cc1)C1c2ccccc2C(=O)N1CCc1ccccn1 (stereo not given) | 120 µM (≈ 54.4 µg/mL) | 42 µL/min/mg | 190 µL/min/mg | –
37 | O=C(NCc1ccc(OC(F)(F)F)cc1)C1c2ccccc2C(=O)N1CCOCC(F)(F)F (stereo not given) | 3 µM (≈ 1.43 µg/mL) | < 10 µL/min/mg | 44 µL/min/mg | –
38 | O=C(NCc1ccc(Br)cc1)C1c2ccccc2C(=O)N1CCc1ccccn1 (stereo not given) | 57 µM (≈ 25.7 µg/mL) | 31 µL/min/mg | 120 µL/min/mg | –
39 | O=C(NCc1ccc(OC(F)(F)F)cc1)C1c2ccccc2C(=O)N1CCC1CCOCC1 (stereo not given) | 20 µM (≈ 9.25 µg/mL) | < 10 µL/min/mg | 71 µL/min/mg | –
40 | O=C(NCc1ccc(OC(F)(F)F)cc1)C1c2cccc(F)c2C(=O)N1CCc1ccccn1 (stereo not given) | 26 µM (≈ 12.3 µg/mL) | 16 µL/min/mg | 170 µL/min/mg | –
41 | O=C(NCc1ccc(OC(F)(F)F)cc1)C1c2ccccc2C(=O)N1CCc1cccnc1 (stereo not given) | 69 µM (≈ 31.4 µg/mL) | 28 µL/min/mg | 100 µL/min/mg | –
42 | CCCCNc1ccc(C(=O)OCCN(C)C)cc1 [TETRACAINE] | – | – | – | IC50 (cells): 33 µM
43 | CC(Cc1ccccn1)N1C(=O)c2ccccc2C1C(=O)NCc1ccc(OC(F)(F)F)cc1 (stereo not given) | 28 µM (≈ 13.1 µg/mL) | < 10 µL/min/mg | 82 µL/min/mg | –
44 | O=C(NCc1ccc(OC(F)(F)F)cc1)C1c2ccccc2C(=O)N1CCC(F)(F)F (stereo not given) | 11 µM (≈ 4.91 µg/mL) | < 10 µL/min/mg | < 10 µL/min/mg | –
45 | O=C(NCc1ccc(OC(F)(F)F)cc1)C1c2c(O)cccc2C(=O)N1CCc1ccccn1 (stereo not given) | < 1 µM | 23 µL/min/mg | 26 µL/min/mg | –
46 | O=C(NCc1ccc(OC(F)(F)F)cc1)C1c2c(F)cccc2C(=O)N1CCc1ccccn1 (stereo not given) | 17 µM (≈ 8.05 µg/mL) | 10 µL/min/mg | 150 µL/min/mg | –
